{"source": "paper PMC3871636", "about": "(PLoS ONE, 2013)", "key": {"[1]": {"molecular_target": "CYP3A4 (C377/C468 mutant) (Homo sapiens, UniProt P08684, form not given/S18F)", "sequence (P08684 13-503 S18F, form open)": "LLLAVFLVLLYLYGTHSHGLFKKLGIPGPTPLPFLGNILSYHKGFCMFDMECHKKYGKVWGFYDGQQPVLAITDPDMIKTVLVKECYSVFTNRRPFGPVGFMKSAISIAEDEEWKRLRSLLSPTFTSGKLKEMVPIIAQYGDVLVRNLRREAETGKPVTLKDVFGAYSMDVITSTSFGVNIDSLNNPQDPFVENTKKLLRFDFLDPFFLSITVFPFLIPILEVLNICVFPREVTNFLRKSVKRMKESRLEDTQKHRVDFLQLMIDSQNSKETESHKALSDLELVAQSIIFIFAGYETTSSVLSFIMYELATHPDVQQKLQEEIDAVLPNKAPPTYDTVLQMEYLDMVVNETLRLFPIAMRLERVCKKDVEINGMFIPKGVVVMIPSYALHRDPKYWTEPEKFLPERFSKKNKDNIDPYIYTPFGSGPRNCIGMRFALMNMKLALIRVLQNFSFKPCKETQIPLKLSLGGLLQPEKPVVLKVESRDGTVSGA", "test": "Ligand-induced spin shift, absorbance titration", "assay_type": "binding", "conditions": "human, purified CYP3A4(C377/C468) mutant protein, pH 7.4; read-out: K D or S 50", "procedure": "(§1) All absorbance and fluorescence assays (including the time-resolved fluorescence measurements) were performed at a protein concentration ≤1 µM at 25°C with continuous stirring. Absorbance spectra were recorded with an S2000 rapid scanning CCD spectrometer (Ocean Optics). Ligand binding assays were done in 100 mM Na-Hepes buffer, pH 7.4, containing 0.5 mM EDTA.\n(§2) Absorbance spectra obtained in titration experiments were analyzed with a principal component analysis (PCA) procedure complemented with least-square approximation of the principal vectors with a combination of the prototypical spectra of the CYP3A4 low-spin, high-spin and Type II-substrate-bound ferric CYP3A4 P450 states as described, [31].\n(§3) When fitting the results of titration experiments, where the changes in the monitored signal A S (fraction of the enzyme in the high-spin state, intensity or the lifetime of the donor phosphorescence at a given substrate concentration) were assumed to be proportional to [ES], this equation was complemented with the offset A 0 and the scaling factor A max to yield the following relationship: [drawing 5] (Eq.5)"}, "[2]": {"molecular_target": "CYP3A4 (C64/C468 mutant) (Homo sapiens, UniProt P08684, form not given/S18F)", "sequence (P08684 13-503 S18F, form open)": "as above", "test": "Ligand-induced spin shift, absorbance titration", "assay_type": "binding", "conditions": "human, purified CYP3A4(C64/C468) mutant protein, pH 7.4; read-out: K D or S 50", "procedure": "as §1, §2, §3"}, "[3]": {"molecular_target": "CYP3A4 (double-labeled (C64/C468)-DY/ER) (Homo sapiens, UniProt P08684, form not given/S18F)", "sequence (P08684 13-503 S18F, form open)": "as above", "test": "Steady-state LRET titration (delayed emission)", "assay_type": "binding", "conditions": "human, purified double-labeled CYP3A4 (C64/C468)-DY/ER protein, pH 7.4; (C64/C468)-DY/ER; LRET titration; read-out: K d, steady-state fluorescence", "procedure": "as §1\n(§4) Fluorescence-based ligand binding assays were done under anaerobic conditions. Anaerobiosis was achieved using an oxygen-scavenging system consisting of protecatechuate-3,4-dioxygenase (0.5 units/ml) and 5 mM protocatechuic acid. The steady state and time-resolved phosphorescence measurements were performed with the use of a Cary Eclipse fluorescence spectrophotometer (Varian/Agilent Technologies). The excitation wavelength was set to 540 nm. Spectra were taken from 650 to 860 nm with 100 µs delay.\n(§5) Quantitative interpretation of LRET results was also based on the use of PCA applied to a series of emission spectra normalized on integral intensity. […] Intensity of the donor and acceptor fluorescence obtained in this way were used in determination of the efficiency of steady-state LRET using the equation [drawing 1] (Eq.1) where I ad is emission intensity of the acceptor, I da is the residual donor emission in the presence of acceptor (I da), Φ a and Φ d are the quantum yield of the fluorescence of acceptor and the quantum yield of the phosphorescence of donor, respectively.\n(§6) Distances were calculated using the equation: [drawing 3] (Eq.3) where R 0 is the Förster distance, and R is the distance between the donor and acceptor. R 0 was calculated with the use of PhotoChemCad software. In these calculations, we used the values of the orientation factor (κ^2) and the refractive index (n) of 0.667 and 1.4, respectively.\nas §3"}, "[4]": {"molecular_target": "T1, double-labeled CYP3A4 (C64/C468)-DY/ER (Homo sapiens, UniProt P08684, S18F, form not given)", "T1 sequence (P08684 13-503 S18F, form open)": "as above", "test": "Steady-state LRET titration (delayed emission)", "assay_type": "binding", "procedure": "as §1, §4, §5, §6, §3"}, "[5]": {"molecular_target": "T2, double-labeled CYP3A4 (C64/C468)-ER/DY (Homo sapiens, UniProt P08684, S18F, form not given)", "T2 sequence (P08684 13-503 S18F, form open)": "as above", "test": "Steady-state LRET titration (delayed emission)", "assay_type": "binding", "procedure": "as §1, §4, §5, §6, §3"}, "[6]": {"molecular_target": "T3, double-labeled CYP3A4 C377/C468-DY/ER (Homo sapiens, UniProt P08684, S18F, form not given)", "T3 sequence (P08684 13-503 S18F, form open)": "as above", "test": "Steady-state LRET titration (delayed emission)", "assay_type": "binding", "conditions": "Table S2; protein C377/C468-ER/DY; same ligand concentrations", "procedure": "as §1, §4, §5, §6, §3"}, "[7]": {"molecular_target": "double-labeled CYP3A4 C64/C121-DY/ER (Homo sapiens, UniProt P08684, A121C/C239S/C377S/C468A/C98S/S18F)", "sequence (P08684 with tags, fused parts or gaps S18F/C98S/A121C/C239S/C377S/C468A limits assumed)": "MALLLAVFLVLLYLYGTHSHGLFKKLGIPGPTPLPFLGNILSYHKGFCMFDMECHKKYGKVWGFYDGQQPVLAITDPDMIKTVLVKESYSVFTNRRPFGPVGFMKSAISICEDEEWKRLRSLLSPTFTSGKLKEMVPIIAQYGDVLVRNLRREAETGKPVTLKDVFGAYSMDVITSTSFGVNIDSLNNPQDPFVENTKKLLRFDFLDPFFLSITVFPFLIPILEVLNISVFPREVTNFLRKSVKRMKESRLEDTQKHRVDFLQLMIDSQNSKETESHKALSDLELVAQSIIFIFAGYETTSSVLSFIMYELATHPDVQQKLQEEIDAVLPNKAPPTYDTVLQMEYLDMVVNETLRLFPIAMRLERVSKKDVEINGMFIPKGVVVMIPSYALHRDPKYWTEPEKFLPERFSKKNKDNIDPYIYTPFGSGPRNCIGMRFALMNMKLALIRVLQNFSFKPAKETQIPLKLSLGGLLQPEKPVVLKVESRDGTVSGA", "test": "Steady-state LRET titration (delayed emission)", "conditions": "Table S2; protein C64/C121-ER/DY; same ligand concentrations", "procedure": "as §1, §4, §5, §6, §3"}, "[8]": {"molecular_target": "T1, double-labeled CYP3A4 (C64/C468)-DY/ER", "test": "Time-resolved LRET (phosphorescence lifetime measurements)", "text": "(§7) The excitation wavelength was set to 540 nm."}, "[9]": {"molecular_target": "T2, double-labeled CYP3A4 (C64/C468)-ER/DY", "test": "Time-resolved LRET (phosphorescence lifetime measurements)", "text": "as §7"}, "[10]": {"molecular_target": "T3, double-labeled CYP3A4 C377/C468-DY/ER", "test": "Time-resolved LRET (phosphorescence lifetime measurements)", "text": "as §7"}, "[11]": {"conditions": "Table S2, C64/C468-DY/ER, same ligand concentrations"}, "[12]": {"conditions": "Table S2, C64/C468-ER/DY, same ligand concentrations"}, "[13]": {"conditions": "Table S1, (C64/C468)-DY/ER, same ligand concentrations"}, "[14]": {"conditions": "Table S1, (C64/C468)-ER/DY, same ligand concentrations"}, "[15]": {"conditions": "Table S1, protein (C377/C468)-ER/DY, same ligand concentrations"}, "[16]": {"conditions": "Table S2, protein C377/C468-ER/DY, same ligand concentrations"}}, "note": "Counter-ions that a name gives are not always drawn."}
{"compound": "CC(C)C[C@H]1C(=O)N2CCC[C@H]2[C@]2(O)O[C@](NC(=O)[C@@H]3C=C4c5cccc6[nH]c(Br)c(c56)C[C@H]4N(C)C3)(C(C)C)C(=O)N12", "note": "[Bromocriptine, Bromocriptine mesylate]", "values": [{"measurement": "Kd", "setting": "[1]", "value": "960 ± 200", "unit": "nM"}, {"measurement": "Kd", "setting": "[2]", "value": "340 ± 100", "unit": "nM"}, {"measurement": "Kd", "setting": "[3]", "value": "700 ± 100", "unit": "nM"}, {"measurement": "ΔR (change in interprobe distance), steady-state fluorescence", "setting": "[4]; (C64/C468)-DY/ER", "value": "0.2±0.2", "unit": "Å"}, {"measurement": "R (interprobe distance with ligand), steady-state measurements", "setting": "[4]; [11]", "value": "35.1 ± 0", "unit": "Å"}, {"measurement": "ΔR, steady-state measurements", "setting": "[4]; [11]", "value": "0.2 ± 0.2", "unit": "Å"}, {"measurement": "ΔR (change in interprobe distance), steady-state fluorescence", "setting": "[5]; (C64/C468)-ER/DY", "value": "0.5±1.6", "unit": "Å"}, {"measurement": "R (interprobe distance with ligand), steady-state measurements", "setting": "[5]; [12]", "value": "39.6 ± 1.6", "unit": "Å"}, {"measurement": "ΔR, steady-state measurements", "setting": "[5]; [12]", "value": "0.5 ± 1.6", "unit": "Å"}, {"measurement": "R (interprobe distance with ligand), steady-state measurements", "setting": "[6]", "value": "44.7 ± 0.1", "unit": "Å"}, {"measurement": "ΔR, steady-state measurements", "setting": "[6]", "value": "0.0 ± 0.1", "unit": "Å"}, {"measurement": "R (interprobe distance with ligand), steady-state measurements", "setting": "[7]", "value": "43.6 ± 0.9", "unit": "Å"}, {"measurement": "ΔR, steady-state measurements", "setting": "[7]", "value": "1.0 ± 0.9", "unit": "Å"}, {"measurement": "ΔR (change in interprobe distance), lifetime measurements", "setting": "[8]; (C64/C468)-DY/ER, nearly-saturating ligand: ANF 100 µM, bromocriptine 2.5 µM, cholesterol 50 µM, testosterone 100 µM", "value": "0.3±1.0", "unit": "Å"}, {"measurement": "τ1 (phosphorescence decay time with ligand)", "setting": "[8]; Table S1, (C64/C468)-DY/ER, 1-PB 40 µM, ANF 100 µM, BCT 2.5 µM, cholesterol 100 µM, testosterone 100 µM, bi-exponential fit", "value": "55 ± 9", "unit": "µs"}, {"measurement": "F1 (fraction of first exponential)", "setting": "[8]; [13]", "value": "44 ± 5", "unit": "%"}, {"measurement": "τ2 (phosphorescence decay time with ligand)", "setting": "[8]; [13]", "value": "209 ± 20", "unit": "µs"}, {"measurement": "τav (average phosphorescence lifetime with ligand)", "setting": "[8]; [13]", "value": "141 ± 7", "unit": "µs"}, {"measurement": "R (interprobe distance with ligand), lifetime measurements", "setting": "[8]; [11]", "value": "37.1 ± 0.8", "unit": "Å"}, {"measurement": "ΔR, lifetime measurements", "setting": "[8]; [11]", "value": "0.3 ± 0.8", "unit": "Å"}, {"measurement": "ΔR (change in interprobe distance), lifetime measurements", "setting": "[9]; (C64/C468)-ER/DY, nearly-saturating ligand: ANF 100 µM, bromocriptine 2.5 µM, cholesterol 50 µM, testosterone 100 µM", "value": "−0.3±0.6", "unit": "Å"}, {"measurement": "τ1 (phosphorescence decay time with ligand)", "setting": "[9]; Table S1, (C64/C468)-ER/DY, 1-PB 40 µM, ANF 100 µM, BCT 2.5 µM, cholesterol 100 µM, testosterone 100 µM, bi-exponential fit", "value": "39 ± 12", "unit": "µs"}, {"measurement": "F1 (fraction of first exponential)", "setting": "[9]; [14]", "value": "28 ± 5", "unit": "%"}, {"measurement": "τ2 (phosphorescence decay time with ligand)", "setting": "[9]; [14]", "value": "168 ± 2", "unit": "µs"}, {"measurement": "τav (average phosphorescence lifetime with ligand)", "setting": "[9]; [14]", "value": "131 ± 5", "unit": "µs"}, {"measurement": "R (interprobe distance with ligand), lifetime measurements", "setting": "[9]; [12]", "value": "36.0 ± 0.5", "unit": "Å"}, {"measurement": "ΔR, lifetime measurements", "setting": "[9]; [12]", "value": "-0.3 ± 0.5", "unit": "Å"}, {"measurement": "τ1 (phosphorescence decay time with ligand)", "setting": "[10]; Table S1, protein (C377/C468)-ER/DY, 1-PB 40 µM, ANF 100 µM, BCT 2.5 µM, cholesterol 100 µM, testosterone 100 µM, bi-exponential fit", "value": "25 ± 9", "unit": "µs"}, {"measurement": "F1 (fraction of first exponential)", "setting": "[10]; [15]", "value": "20 ± 4", "unit": "%"}, {"measurement": "τ2 (phosphorescence decay time with ligand)", "setting": "[10]; [15]", "value": "129 ± 6", "unit": "µs"}, {"measurement": "τav (average phosphorescence lifetime with ligand)", "setting": "[10]; [15]", "value": "108 ± 3", "unit": "µs"}, {"measurement": "R (interprobe distance with ligand), lifetime measurements", "setting": "[10]; [16]", "value": "36.8± 0.4", "unit": "Å"}, {"measurement": "ΔR, lifetime measurements", "setting": "[10]; [16]", "value": "0.0 ± 0.4", "unit": "Å"}]}
